{"source": "patent US10278949B2", "about": "“Method for obtaining an extract rich in ellagic acid tannins from fruits that contain these compounds, and resulting extract” (UNIVERSIDAD DE COSTA RICA, priority 2011, dated 2019)", "format_in_all_cases": "physicochemical", "conditions_in_all_cases": "mean ± DE of three replicate experiments", "key": {"[1]": {"test": "Antioxidant capacity (ORAC)", "description": "(§1) We confirmed the removal activity of the polyphenol rich extract from microfiltered blackberry juice using different methods (Chart 11), and this activity was compared with the flavonoid remover of quercetin radicals."}, "NO removal assay": {"test": "NO removal assay", "experimental": "as §1\nFour hours of pretreatment with the blackberry extract reduced NO production in a dose dependent manner only when the LPS+IFNγ was incubated with the extract (no wash). If the extract is removed before the addition of LPS+IFNγ (with rinsing), inhibition of NO production was seen only in the highest concentration tested."}, "DPPH radical removal": {"test": "DPPH radical removal", "description": "as §1"}}, "note": "Marks after values point to notes of the source that are not given here.", "data": [{"compound": "O=c1c(O)c(-c2ccc(O)c(O)c2)oc2cc(O)cc(O)c12", "note": "[Quercetin]", "values": [{"measurement": "ORAC", "setting": "[1]", "value": "2067 ± 81^b μM TE/g"}, {"measurement": "No Removal IC50", "setting": "NO removal assay", "value": "6.57 ± 0.8^b μg/mL"}, {"measurement": "DPPH IC50", "setting": "DPPH radical removal", "value": "2.17 ± 0.08^b μg/mL"}]}]}
